For the assay, the system named is MV-4-11 cells. The experiment in a line: Gene expression microarray analysis (Affymetrix PrimeView) and GSEA. It is filed as cell-based, human. Also noted: RFU PODN (11730768_x_at) / Fold change /veh PODN (11730768_x_at) / RFU LINC00158 (11744669_a_at) / Fold change /veh LINC00158 (11744669_a_at) / RFU DUSP10 (11751237_a_at) / Fold change /veh DUSP10 (11751237_a_at) / RFU ID3 (11757404_x_at) / Fold change /veh ID3 (11757404_x_at) / RFU PLEKHG5 (11737974_s_at) / Fold change /veh PLEKHG5 (11737974_s_at) / RFU LRRC4B (11730491_at) / Fold change /veh LRRC4B (11730491_at) / RFU GIMAP4 (11747438_a_at) / Fold change /veh GIMAP4 (11747438_a_at) / RFU KRT8 (11758183_x_at) / Fold change /veh KRT8 (11758183_x_at) / RFU CNN1 (11734310_a_at) / Fold change /veh CNN1 (11734310_a_at) / RFU VPS37D (11726825_at) / Fold change /veh VPS37D (11726825_at) / RFU C10orf10 (11716522_x_at) / Fold change /veh C10orf10 (11716522_x_at) / RFU KIR2DL2 /// KIR2DL4 /// KIR2DL5A /// KIR2DL5B /// KIR2DS1 /// KIR2DS2 /// KIR2DS3 /// KIR2DS4 /// KIR3DL3 /// KIR3DL3 /// KIR3DS1 (11738374_at) / Fold change /veh KIR2DL2 /// KIR2DL4 /// KIR2DL5A /// KIR2DL5B /// KIR2DS1 /// KIR2DS2 /// KIR2DS3 /// KIR2DS4 /// KIR3DL3 /// KIR3DL3 /// KIR3DS1 (11738374_at) / RFU C1QL1 (11718748_at) / Fold change /veh C1QL1 (11718748_at) / RFU TMPRSS4 (11747572_a_at) / Fold change /veh TMPRSS4 (11747572_a_at) / RFU HAMP (11756126_x_at) / Fold change /veh HAMP (11756126_x_at) / RFU RNFT2 (11725882_a_at) / Fold change /veh RNFT2 (11725882_a_at) / RFU NR4A2 (11747474_a_at) / Fold change /veh NR4A2 (11747474_a_at) / RFU ABCC12 (11746883_a_at) / Fold change /veh ABCC12 (11746883_a_at) / RFU TMEM136 (11760407_x_at) / Fold change /veh TMEM136 (11760407_x_at) / RFU CLDN22 /// WWC2 (11732394_at) / Fold change /veh CLDN22 /// WWC2 (11732394_at) / RFU HLA-DPB1 (11760878_x_at) / Fold change /veh HLA-DPB1 (11760878_x_at) / RFU SPINT1 (11716480_a_at) / Fold change /veh SPINT1 (11716480_a_at) / RFU GAP43 (11754022_s_at) / Fold change /veh GAP43 (11754022_s_at) / RFU A4GNT (11735810_at) / Fold change /veh A4GNT (11735810_at) / RFU PRB3 (11715151_x_at) / Fold change /veh PRB3 (11715151_x_at) / RFU TUBB4B (11761932_at) / Fold change /veh TUBB4B (11761932_at) / RFU CAPN14 (11732068_a_at) / Fold change /veh CAPN14 (11732068_a_at) / RFU TMCC2 (11721928_a_at) / Fold change /veh TMCC2 (11721928_a_at) / RFU IRGQ (11745062_a_at) / Fold change /veh IRGQ (11745062_a_at) / RFU FAM174B (11720279_a_at) / Fold change /veh FAM174B (11720279_a_at) / RFU TMPRSS4 (11748680_a_at) / Fold change /veh TMPRSS4 (11748680_a_at) / RFU FAM212B (11763350_a_at) / Fold change /veh FAM212B (11763350_a_at) / RFU PLEKHG5 (11743358_a_at) / Fold change /veh PLEKHG5 (11743358_a_at) / RFU ZSCAN30 (11745921_a_at) / Fold change /veh ZSCAN30 (11745921_a_at) / RFU CMKLR1 (11741424_a_at) / Fold change /veh CMKLR1 (11741424_a_at) / RFU LOC101060620 /// MAPK8IP1 (11723275_at) / Fold change /veh LOC101060620 /// MAPK8IP1 (11723275_at) / RFU SPTSSB (11747773_x_at) / Fold change /veh SPTSSB (11747773_x_at) / RFU PRSS12 (11739890_at) / Fold change /veh PRSS12 (11739890_at) / RFU BIN1 (11741810_x_at) / Fold change /veh BIN1 (11741810_x_at) / RFU WNT11 (11732464_a_at) / Fold change /veh WNT11 (11732464_a_at) / RFU C10orf10 (11716521_a_at) / Fold change /veh C10orf10 (11716521_a_at) / RFU C5orf56 (11738089_at) / Fold change /veh C5orf56 (11738089_at) / RFU CYB561 (11721691_x_at) / Fold change /veh CYB561 (11721691_x_at) / RFU ANKRD19P (11752326_a_at) / Fold change /veh ANKRD19P (11752326_a_at) / RFU OR2T12 /// OR2T33 /// OR2T8 (11738714_s_at) / Fold change /veh OR2T12 /// OR2T33 /// OR2T8 (11738714_s_at) / RFU VCAN (11748164_a_at) / Fold change /veh VCAN (11748164_a_at) / RFU JSRP1 (11732532_at) / Fold change /veh JSRP1 (11732532_at) / RFU KRTAP10-11 (11738290_x_at) / Fold change /veh KRTAP10-11 (11738290_x_at) / RFU MYO3A (11730013_a_at) / Fold change /veh MYO3A (11730013_a_at) / RFU EBF3 (11725865_a_at) / Fold change /veh EBF3 (11725865_a_at) / RFU CAMK2N1 (11719241_x_at) / Fold change /veh CAMK2N1 (11719241_x_at) / RFU C5orf56 (11738088_a_at) / Fold change /veh C5orf56 (11738088_a_at) / RFU OLFML3 (11715873_a_at) / Fold change /veh OLFML3 (11715873_a_at) / RFU LOC100653217 /// NTM (11731650_a_at) / Fold change /veh LOC100653217 /// NTM (11731650_a_at) / RFU MAPK11 (11762145_a_at) / Fold change /veh MAPK11 (11762145_a_at) / RFU FIZ1 (11724087_x_at) / Fold change /veh FIZ1 (11724087_x_at) / RFU OASL (11726364_x_at) / Fold change /veh OASL (11726364_x_at) / RFU SOX15 (11748057_x_at) / Fold change /veh SOX15 (11748057_x_at) / RFU CD79A (11719716_a_at) / Fold change /veh CD79A (11719716_a_at) / RFU HIST1H1D (11736915_at) / Fold change /veh HIST1H1D (11736915_at) / RFU CASKIN2 (11723855_a_at) / Fold change /veh CASKIN2 (11723855_a_at) / RFU LOC730098 (11760151_x_at) / Fold change /veh LOC730098 (11760151_x_at) / RFU OR4N2 (11742367_at) / Fold change /veh OR4N2 (11742367_at) / RFU PRRT2 (11749266_a_at) / Fold change /veh PRRT2 (11749266_a_at) / RFU SNX32 (11753110_a_at) / Fold change /veh SNX32 (11753110_a_at) / RFU CDHR5 (11726645_a_at) / Fold change /veh CDHR5 (11726645_a_at) / RFU RCAN1 (11760418_a_at) / Fold change /veh RCAN1 (11760418_a_at) / RFU FAM167A (11723789_a_at) / Fold change /veh FAM167A (11723789_a_at) / RFU FAM26E (11764081_at) / Fold change /veh FAM26E (11764081_at) / RFU ISYNA1 (11749810_s_at) / Fold change /veh ISYNA1 (11749810_s_at) / RFU ACY1 (11761880_at) / Fold change /veh ACY1 (11761880_at) / RFU 11764098_at / Fold change /veh 11764098_at / RFU SAMD14 (11745864_x_at) / Fold change /veh SAMD14 (11745864_x_at) / RFU NPB (11741838_a_at) / Fold change /veh NPB (11741838_a_at) / RFU TMPRSS6 (11731388_a_at) / Fold change /veh TMPRSS6 (11731388_a_at) / RFU KRTAP10-2 (11738614_at) / Fold change /veh KRTAP10-2 (11738614_at) / RFU ARHGAP8 /// PRR5-ARHGAP8 (11727945_x_at) / Fold change /veh ARHGAP8 /// PRR5-ARHGAP8 (11727945_x_at) / RFU KRTAP5-7 /// NADSYN1 (11734609_at) / Fold change /veh KRTAP5-7 /// NADSYN1 (11734609_at) / RFU RASL12 (11751679_a_at) / Fold change /veh RASL12 (11751679_a_at) / RFU CDKN2B (11736163_a_at) / Fold change /veh CDKN2B (11736163_a_at) / RFU PRF1 (11729649_at) / Fold change /veh PRF1 (11729649_at) / RFU, ZNF638 /// ZNF638-IT1 / Fold change vs veh, ZNF638 /// ZNF638-IT1 / RFU, PANK3 / Fold change vs veh, PANK3 / RFU, SH3YL1 / Fold change vs veh, SH3YL1 / RFU, ZEB2 / Fold change vs veh, ZEB2 / RFU, NRIP1 / Fold change vs veh, NRIP1 / RFU, PTTG1IP / Fold change vs veh, PTTG1IP / RFU, CAPN2 / Fold change vs veh, CAPN2 / RFU, MED14 / Fold change vs veh, MED14 / RFU, SNORA58 / Fold change vs veh, SNORA58 / RFU, C1orf63 / Fold change vs veh, C1orf63 / RFU, LRRFIP1 / Fold change vs veh, LRRFIP1 / RFU, NDUFAF7 / Fold change vs veh, NDUFAF7 / RFU, SLC12A2 / Fold change vs veh, SLC12A2 / RFU, IBTK / Fold change vs veh, IBTK / RFU, ESF1 / Fold change vs veh, ESF1 / Fold change vs veh, TMEM50B / RFU, TAOK1 / Fold change vs veh, TAOK1 / RFU, ACBD3 / Fold change vs veh, ACBD3 / RFU, TMA16 / Fold change vs veh, TMA16 / RFU, RWDD3 / Fold change vs veh, RWDD3 / RFU, BCAT1 / Fold change vs veh, BCAT1 / RFU, EDEM3 / Fold change vs veh, EDEM3 / RFU, TMEM33 / Fold change vs veh, TMEM33 / RFU, WDR75 / Fold change vs veh, WDR75 / RFU, AHCTF1 / Fold change vs veh, AHCTF1 / RFU, TFRC / Fold change vs veh, TFRC / RFU, ZDHHC17 / Fold change vs veh, ZDHHC17 / RFU, NOM1 / Fold change vs veh, NOM1 / RFU, ARL8B / Fold change vs veh, ARL8B / RFU, ZBTB11 / Fold change vs veh, ZBTB11 / RFU, TAMM41 / Fold change vs veh, TAMM41 / RFU, KIAA1704 /// LOC100996395 / Fold change vs veh, KIAA1704 /// LOC100996395 / RFU, ING1 / Fold change vs veh, ING1 / RFU, TRMT61B / Fold change vs veh, TRMT61B / RFU, FUBP3 / Fold change vs veh, FUBP3 / RFU, TP53 / Fold change vs veh, TP53 / RFU, TNKS2 / Fold change vs veh, TNKS2 / RFU, ZFP14 / Fold change vs veh, ZFP14 / RFU, ACTR2 / Fold change vs veh, ACTR2 / RFU, PPP3R1 / Fold change vs veh, PPP3R1 / RFU, PIK3R1 / Fold change vs veh, PIK3R1 / RFU, HNRNPA1 / Fold change vs veh, HNRNPA1 / RFU, RNF170 / Fold change vs veh, RNF170 / RFU, ZNF28 / Fold change vs veh, ZNF28 / RFU, RNGTT / Fold change vs veh, RNGTT / RFU, OGT / Fold change vs veh, OGT / RFU, BRD1 / Fold change vs veh, BRD1 / RFU, MARS / Fold change vs veh, MARS / RFU, ZNF655 / Fold change vs veh, ZNF655 / RFU, FAHD1 / Fold change vs veh, FAHD1 / RFU, BDP1 / Fold change vs veh, BDP1 / RFU, LRRCC1 / Fold change vs veh, LRRCC1 / RFU, ARID1A / Fold change vs veh, ARID1A / RFU, ZNF146 / Fold change vs veh, ZNF146 / RFU, ZNF330 / Fold change vs veh, ZNF330 / RFU, GPN3 / Fold change vs veh, GPN3 / RFU, C9orf123 / Fold change vs veh, C9orf123 / RFU, N4BP2L2 / Fold change vs veh, N4BP2L2 / RFU, ARFIP1 / Fold change vs veh, ARFIP1 / RFU, FAM179B / Fold change vs veh, FAM179B / RFU, BCL10 / Fold change vs veh, BCL10 / RFU, UHRF1BP1L / Fold change vs veh, UHRF1BP1L / RFU, BET1 / Fold change vs veh, BET1 / RFU, CNOT2 / Fold change vs veh, CNOT2 / RFU, ZNF268 / Fold change vs veh, ZNF268 / Fold change vs veh, ZNF507 / RFU, DGCR2 / Fold change vs veh, DGCR2 / RFU, WDSUB1 / Fold change vs veh, WDSUB1 / Fold change vs veh, HSP90B1 /// MIR3652 / RFU, ADSS / Fold change vs veh, ADSS / RFU, GK / Fold change vs veh, GK / RFU, ZNF148 / Fold change vs veh, ZNF148 / RFU, TAF9 / Fold change vs veh, TAF9 / RFU, SLC1A5 / Fold change vs veh, SLC1A5 / RFU, SLMO2 / Fold change vs veh, SLMO2 / RFU, ABCC4 / Fold change vs veh, ABCC4 / RFU, LOC101060439 /// RAP1B / Fold change vs veh, LOC101060439 /// RAP1B / RFU, RFX7 / Fold change vs veh, RFX7 / RFU, GTPBP10 / Fold change vs veh, GTPBP10 / RFU, CNEP1R1 / Fold change vs veh, CNEP1R1 / RFU, BIVM-ERCC5 /// ERCC5 / Fold change vs veh, BIVM-ERCC5 /// ERCC5 / RFU, ILF3 / Fold change vs veh, ILF3 / RFU 11762660_at / Fold change /veh 11762660_at / RFU VCAN (11757783_s_at) / Fold change /veh VCAN (11757783_s_at) / RFU DDX43 (11728927_at) / Fold change /veh DDX43 (11728927_at) / RFU KRT8 (11758188_x_at) / Fold change /veh KRT8 (11758188_x_at) / RFU NKD1 (11759106_at) / Fold change /veh NKD1 (11759106_at) / RFU SRD5A1 (11742802_a_at) / Fold change /veh SRD5A1 (11742802_a_at) / RFU TPSAB1 /// TPSB2 (11721975_s_at) / Fold change /veh TPSAB1 /// TPSB2 (11721975_s_at) / RFU GSTM3 (11746129_a_at) / Fold change /veh GSTM3 (11746129_a_at) / RFU IL23R (11737362_x_at) / Fold change /veh IL23R (11737362_x_at) / RFU TMEM51 (11727254_a_at) / Fold change /veh TMEM51 (11727254_a_at) / RFU PIWIL2 (11732686_x_at) / Fold change /veh PIWIL2 (11732686_x_at) / RFU ORM1 (11744905_x_at) / Fold change /veh ORM1 (11744905_x_at) / RFU CCDC152 (11743942_at) / Fold change /veh CCDC152 (11743942_at) / RFU ECM1 (11717891_a_at) / Fold change /veh ECM1 (11717891_a_at) / RFU IL23R (11748794_a_at) / Fold change /veh IL23R (11748794_a_at) / RFU TNFAIP8L3 (11732012_x_at) / Fold change /veh TNFAIP8L3 (11732012_x_at) / RFU MBOAT4 (11741988_at) / Fold change /veh MBOAT4 (11741988_at) / RFU 11764193_at / Fold change /veh 11764193_at / RFU TMEM53 (11763286_at) / Fold change /veh TMEM53 (11763286_at) / RFU MAGEB2 (11727129_at) / Fold change /veh MAGEB2 (11727129_at) / RFU TMEM200A (11744735_a_at) / Fold change /veh TMEM200A (11744735_a_at) / RFU CCDC152 (11751479_a_at) / Fold change /veh CCDC152 (11751479_a_at) / RFU FAM211A (11726209_a_at) / Fold change /veh FAM211A (11726209_a_at) / RFU RGS16 (11746705_a_at) / Fold change /veh RGS16 (11746705_a_at) / RFU VCAN (11755009_s_at) / Fold change /veh VCAN (11755009_s_at) / RFU RHOB (11743442_s_at) / Fold change /veh RHOB (11743442_s_at) / RFU RGS16 (11720943_a_at) / Fold change /veh RGS16 (11720943_a_at) / RFU RGS16 (11720944_at) / Fold change /veh RGS16 (11720944_at) / RFU, VPS4B / Fold change vs veh, VPS4B / RFU, CREB1 / Fold change vs veh, CREB1 / RFU, DNAJC13 / Fold change vs veh, DNAJC13 / RFU, GNAQ / Fold change vs veh, GNAQ / RFU, CDK5R1 / Fold change vs veh, CDK5R1 / RFU, ZRANB3 / Fold change vs veh, ZRANB3 / RFU, CUL4A / Fold change vs veh, CUL4A / RFU, CCNY / Fold change vs veh, CCNY / RFU, UFL1 / Fold change vs veh, UFL1 / RFU, COG3 / Fold change vs veh, COG3 / RFU, DIAPH2 / Fold change vs veh, DIAPH2 / RFU, SKA2 / Fold change vs veh, SKA2 / RFU, AFF3 / Fold change vs veh, AFF3 / RFU, LMF1 / Fold change vs veh, LMF1 / RFU, IPO11 / Fold change vs veh, IPO11 / RFU, DFFB / Fold change vs veh, DFFB / RFU, FOXP1 / Fold change vs veh, FOXP1 / RFU, CARD8 / Fold change vs veh, CARD8 / RFU, STRN3 / Fold change vs veh, STRN3 / RFU, ADK / Fold change vs veh, ADK / RFU, RASSF2 / Fold change vs veh, RASSF2 / RFU, WIPF1 / Fold change vs veh, WIPF1 / RFU, LARP1B / Fold change vs veh, LARP1B / RFU, RASA1 / Fold change vs veh, RASA1 / RFU, RB1 / Fold change vs veh, RB1 / RFU, PPFIA1 / Fold change vs veh, PPFIA1 / RFU, MAT2A / Fold change vs veh, MAT2A / RFU, CCT5 / Fold change vs veh, CCT5 / RFU, WDR92 / Fold change vs veh, WDR92 / RFU, CUX1 / Fold change vs veh, CUX1 / RFU, TTC7A / Fold change vs veh, TTC7A / RFU, TMEM135 / Fold change vs veh, TMEM135 / RFU, DEPTOR / Fold change vs veh, DEPTOR / RFU, CPM / Fold change vs veh, CPM / RFU, DNAJB6 / Fold change vs veh, DNAJB6 / RFU, CACNA2D3 / Fold change vs veh, CACNA2D3 / RFU, DTX4 / Fold change vs veh, DTX4 / RFU, TFCP2 / Fold change vs veh, TFCP2 / RFU, GMCL1 /// GMCL1P1 / Fold change vs veh, GMCL1 /// GMCL1P1 / RFU, AEBP2 / Fold change vs veh, AEBP2 / RFU, SNHG1 /// SNORD22 /// SNORD25 /// SNORD26 /// SNORD27 /// SNORD28 /// SNORD29 /// SNORD31 / Fold change vs veh, SNHG1 /// SNORD22 /// SNORD25 /// SNORD26 /// SNORD27 /// SNORD28 /// SNORD29 /// SNORD31 / Fold change (Aza/veh), C12orf56 (ProbeSet 11735607_a_at) / Fold change (ACY-1035/veh), C12orf56 (ProbeSet 11735607_a_at) / Fold change (Aza/veh), FGFR1OP (ProbeSet 11751329_s_at) / Fold change (ACY-1035/veh), FGFR1OP (ProbeSet 11751329_s_at) / Fold change (Aza/veh), VPS36 (ProbeSet 11739960_a_at) / Fold change (ACY-1035/veh), VPS36 (ProbeSet 11739960_a_at) / RFU SYPL1 (11715823_x_at) / Fold change /veh SYPL1 (11715823_x_at) / RFU IGFBP7 (11715501_s_at) / Fold change /veh IGFBP7 (11715501_s_at) / RFU REEP3 (11722064_at) / Fold change /veh REEP3 (11722064_at) / RFU IGLL1 (11728026_x_at) / Fold change /veh IGLL1 (11728026_x_at): dose or concentration left out as unconfirmed. The following applies: ProbeSet 11753055_s_at; LIST B.

Here are results for 1 compound from article PMC5218480 (PLoS ONE, 2017).

For the compound `Nc1ccc(-c2cccs2)cc1NC(=O)c1ccc2c(c1)cc(C1CC1)n2CCN1CCOCC1` [ACY-1035], the “RFU, LOC101060439 /// RAP1B” value worked out at 639.03 RFU.
